Source: US10945685B2, “System and method for normalizing standardized uptake values in brain positron emission tomography (PET) images” (New York University, priority 2018, dated 2021)

Key:
tau = experiment: Example II: global and regional tau binding by SUVR, PERSI and SUVP, 42 NL and 22 AD; type: in vivo, human; details: with SUVR, 64 subjects
Source text: Example II, as discussed below, provides an exemplary embodiment comparing tau PET uptake quantification methods based on a 18F-AV-1451 tracer. Quantitative measurement of tau bindings from PET tracers (such as AV1451) is crucial in the PET-based study of tauopathies (such as Alzheimer's). The standardized uptake value ratio (SUVR) method has been challenged by the off-target binding in reference region. An unbiased tau binding quantification may be achieved via several different methods, including the Parametric Estimate of Reference Signal Intensity (PERSI) method by Avid Radiopharmaceutical and standardized uptake value peak-alignment (SUVP) method. In Example II, we compared the sensitivity of SUVR, PERSI and SUVP methods on the same PET dataset, in both global and local regions.
Using SUVR, PERSI, and SUVP, we evaluated the global and regional tau binding of 18F-AV-1451 on 64 subjects, with 42 cognitively normal (NL) and 22 Alzheimer's disease (AD), and compared the group differences of tau binding under the three different methods. Cerebral cortex was used as ROI for global binding test. The average SUVP value in ROIs is computed by averaging all positive SUVP values (SUVP>0) within the ROI, and positive binding percentage (PBP) for SUVP is defined as the ratio of voxel number with SUVP>1.5 over the total voxel number within the ROI.

[1] = biological target: T1, Monoamine oxidase A (MAO-A) (Homo sapiens, UniProt P21397); details: recent data, background; cited from earlier work
T1 sequence (P21397 1-527): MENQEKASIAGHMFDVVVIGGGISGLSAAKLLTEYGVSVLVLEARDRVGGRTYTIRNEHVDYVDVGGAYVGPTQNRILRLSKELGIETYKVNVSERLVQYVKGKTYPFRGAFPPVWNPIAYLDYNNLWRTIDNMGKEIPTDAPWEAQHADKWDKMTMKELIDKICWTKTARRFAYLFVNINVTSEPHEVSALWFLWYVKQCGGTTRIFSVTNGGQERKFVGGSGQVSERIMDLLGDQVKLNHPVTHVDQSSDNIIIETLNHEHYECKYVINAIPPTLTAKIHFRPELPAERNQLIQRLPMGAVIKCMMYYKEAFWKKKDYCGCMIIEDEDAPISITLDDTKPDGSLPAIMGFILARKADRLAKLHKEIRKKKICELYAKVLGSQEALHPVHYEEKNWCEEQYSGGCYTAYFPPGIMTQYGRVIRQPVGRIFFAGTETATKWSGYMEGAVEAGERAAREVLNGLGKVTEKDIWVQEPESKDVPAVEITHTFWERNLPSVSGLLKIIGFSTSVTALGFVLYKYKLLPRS

[2] = biological target: T2, Monoamine oxidase B (MAO-B) (Homo sapiens, UniProt P27338); experiment: MAO-B off-target binding of tau PET tracer; type: in vivo; details: SUVP data, Example I
T2 construct: from tissue; host or cells: brain of living AD patients and normal control subjects (in vivo PET)
T2 sequence (P27338 1-520): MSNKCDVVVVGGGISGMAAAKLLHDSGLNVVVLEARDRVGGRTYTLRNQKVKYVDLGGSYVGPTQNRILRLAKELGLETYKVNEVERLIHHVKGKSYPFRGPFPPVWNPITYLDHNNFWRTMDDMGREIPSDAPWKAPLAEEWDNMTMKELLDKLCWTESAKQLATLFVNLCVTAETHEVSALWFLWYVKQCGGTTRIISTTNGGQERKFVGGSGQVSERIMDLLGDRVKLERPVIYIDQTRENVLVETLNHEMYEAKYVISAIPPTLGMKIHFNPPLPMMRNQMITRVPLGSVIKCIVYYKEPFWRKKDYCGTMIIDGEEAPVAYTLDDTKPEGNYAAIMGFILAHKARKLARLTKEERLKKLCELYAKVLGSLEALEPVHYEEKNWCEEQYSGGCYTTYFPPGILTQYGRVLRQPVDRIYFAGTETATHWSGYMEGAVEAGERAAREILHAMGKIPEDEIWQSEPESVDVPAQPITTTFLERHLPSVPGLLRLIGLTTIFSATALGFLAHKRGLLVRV

[3] = biological target: T2, Monoamine oxidase B (MAO-B); details: recent data, background; cited from earlier work

Row | Structure (SMILES) | tau binding, AD subjects versus cognitively normal NL subjects (tau) | MAO-A binding [1] | MAO-B off-target binding [2] | MAO-B binding [3]
1 | [18F]c1ccc(-c2ccc3c(c2)[nH]c2ccncc23)cn1 [AV-1451] | significantly higher tau binding | some Monoamine oxidase A (MAO-A) binding |  | 
2 | CNc1ccc(-c2ccc3cc(OC[C@H](O)CF)ccc3n2)cn1 [THK5351] |  |  | MAO-B off-target binding in THK5351 was observed | widespread Monoamine oxidase B (MAO-B) binding
